# Test results from patent US20230201217A1 (priority 2019, published 2023).
# Tests used:
# [1] = target: T1, rat α3β4 nicotinic acetylcholine receptor (nAChR) (Rattus norvegicus, UniProt P04757+P12392); assay: cell-based
# T1 construct: expressed in transfected cells; host or cells: HEK 293 (ATCC CRL1573), transient, Lipofectamine 2000
# [2] = Toxicokinetics, 14-day oral gavage study in CD-1 mice; type: in vivo, mouse
# Description: The relative metabolite concentrations were determined from plasma samples obtained on the last day of dosing in the 25 mg/kg/day group of animals using a UPLC/MS/MS method. Major metabolites were identified as M2 and M4, followed by M8 and M9. The parent 18-MC exposure was less than 1% of the total drug related material. No significant sex differences were observed.
# All test article-treated animals underwent up-titration of dosage levels prior to reaching the maximum daily dose, which was administered for 14 consecutive days. […] The dose volume was 10 mL/kg for all groups. Groups 1 and 4 each consisted of 25 animals/sex and Groups 2-3 each consisted of 20 animals for each sex. Following 14 days of dose administration, 15 mice/sex/toxicology group were euthanized; the remaining 5, (10 for the control and high dose group) mice/sex/toxicology group were euthanized following a 14-day nondosing (recovery) period. Following the final blood collection (study day 13), all toxicokinetic animals (from a satellite group of 18 animals/sex/dose level) were euthanized.
# [3] = test system: cynomolgus monkeys; assay: 14-day nasogastric gavage GLP toxicity study in cynomolgus monkeys; type: in vivo, cynomolgus monkey; settings: for Bone marrow, femur: Depletion, mixed; number with observation / Liver: Hypertrophy, hepatocellular, panlobular; number with observation / Thymus: Depletion, lymphoid, cortex; number with observation: 3 examined
# Excerpt: Assessments of neurobehavioral effects and general toxicity were based on mortality, functional observational battery (FOB) evaluations, clinical observations, body weight, and body temperature; ophthalmoscopic, electrocardiographic examinations; and anatomic and clinical pathology. The anatomical pathology evaluations included histopathology of a full list of tissues from all animals and a comprehensive evaluation of the central nervous system (including selected peripheral nerves) utilizing whole body perfusion and special stains. Bone marrow smears from all animals were evaluated microscopically. Complete differentials and myeloid-erythroid (ME) ratios were performed. Toxicokinetic assessment was conducted for the test article and metabolites.
# T1 sequence (P04757 26-499): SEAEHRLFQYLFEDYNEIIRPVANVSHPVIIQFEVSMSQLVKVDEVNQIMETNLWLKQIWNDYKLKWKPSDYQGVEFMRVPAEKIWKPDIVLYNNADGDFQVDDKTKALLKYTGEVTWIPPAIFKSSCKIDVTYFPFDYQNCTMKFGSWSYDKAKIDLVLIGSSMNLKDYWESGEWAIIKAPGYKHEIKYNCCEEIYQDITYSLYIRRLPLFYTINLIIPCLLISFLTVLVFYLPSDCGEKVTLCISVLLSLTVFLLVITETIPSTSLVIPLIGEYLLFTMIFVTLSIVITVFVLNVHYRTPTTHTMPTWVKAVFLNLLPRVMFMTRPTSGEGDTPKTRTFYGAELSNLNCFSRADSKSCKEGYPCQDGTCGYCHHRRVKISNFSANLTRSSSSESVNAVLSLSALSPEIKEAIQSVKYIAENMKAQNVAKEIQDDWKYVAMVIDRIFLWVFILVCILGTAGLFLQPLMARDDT
# T1 sequence (P12392 21-495): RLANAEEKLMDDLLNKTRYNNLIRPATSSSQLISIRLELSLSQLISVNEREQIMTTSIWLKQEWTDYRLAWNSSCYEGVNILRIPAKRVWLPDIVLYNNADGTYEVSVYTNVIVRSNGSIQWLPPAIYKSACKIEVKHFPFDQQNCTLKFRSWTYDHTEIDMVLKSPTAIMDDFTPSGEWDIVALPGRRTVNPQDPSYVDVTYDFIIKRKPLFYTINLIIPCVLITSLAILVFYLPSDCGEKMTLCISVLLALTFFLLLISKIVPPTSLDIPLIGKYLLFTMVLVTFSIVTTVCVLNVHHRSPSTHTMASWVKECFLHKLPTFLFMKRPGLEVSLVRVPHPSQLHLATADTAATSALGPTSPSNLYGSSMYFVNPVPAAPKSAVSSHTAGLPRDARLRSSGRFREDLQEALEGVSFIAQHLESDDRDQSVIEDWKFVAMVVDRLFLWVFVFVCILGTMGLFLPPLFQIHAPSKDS
smiles,measurement,setting,value
"COCCC1CC2CN3CCc4c([nH]c5ccccc45)C(C(=O)OC)(C2)C13.Cl (stereo not shown) [18-MC HCl, 18-Methoxycoronaridine hydrochloride]",Max Inhibition 20-30 μM,[1],98 ± 1%
same,Persistent Inhibition at 1 sec,[1],88 ± 3%
same,AUC(0-24),"[2]; Day 0, Female, 25 mg/kg/day",77.8 ng·h/mL
same,Cmax,"[2]; Day 0, Female, 25 mg/kg/day",30.8 ng/mL
same,Tmax,"[2]; Day 0, Female, 25 mg/kg/day",30 min
same,AUC(0-24),"[2]; Day 0, Female, 50 mg/kg/day",56.2 ng·h/mL
same,Cmax,"[2]; Day 0, Female, 50 mg/kg/day",23.7 ng/mL
same,Tmax,"[2]; Day 0, Female, 50 mg/kg/day",30 min
same,AUC(0-24),"[2]; Day 0, Female, 100 mg/kg/day",187 ng·h/mL
same,Cmax,"[2]; Day 0, Female, 100 mg/kg/day",51.8 ng/mL
same,Tmax,"[2]; Day 0, Female, 100 mg/kg/day",60 min
same,AUC(0-24),"[2]; Day 0, Male, 25 mg/kg/day",66.6 ng·h/mL
same,Cmax,"[2]; Day 0, Male, 25 mg/kg/day",19.4 ng/mL
same,Tmax,"[2]; Day 0, Male, 25 mg/kg/day",30 min
same,AUC(0-24),"[2]; Day 0, Male, 50 mg/kg/day",108 ng·h/mL
same,Cmax,"[2]; Day 0, Male, 50 mg/kg/day",44.3 ng/mL
same,Tmax,"[2]; Day 0, Male, 50 mg/kg/day",30 min
same,AUC(0-24),"[2]; Day 0, Male, 100 mg/kg/day",349 ng·h/mL
same,Cmax,"[2]; Day 0, Male, 100 mg/kg/day",131 ng/mL
same,Tmax,"[2]; Day 0, Male, 100 mg/kg/day",60 min
same,AUC(0-24),"[2]; Day 13, Female, 25 mg/kg/day",54.5 ng·h/mL
same,Cmax,"[2]; Day 13, Female, 25 mg/kg/day",25.6 ng/mL
same,Tmax,"[2]; Day 13, Female, 25 mg/kg/day",30 min
same,AUC(0-24),"[2]; Day 13, Female, 50 mg/kg/day",119 ng·h/mL
same,Cmax,"[2]; Day 13, Female, 50 mg/kg/day",49.9 ng/mL
same,Tmax,"[2]; Day 13, Female, 50 mg/kg/day",30 min
same,AUC(0-24),"[2]; Day 13, Female, 100 mg/kg/day",188 ng·h/mL
same,Cmax,"[2]; Day 13, Female, 100 mg/kg/day",44.0 ng/mL
same,T1/2,"[2]; Day 13, Female, 100 mg/kg/day",147 min
same,Tmax,"[2]; Day 13, Female, 100 mg/kg/day",30 min
same,AUC(0-24),"[2]; Day 13, Male, 25 mg/kg/day",50.5 ng·h/mL
same,Cmax,"[2]; Day 13, Male, 25 mg/kg/day",23.6 ng/mL
same,Tmax,"[2]; Day 13, Male, 25 mg/kg/day",30 min
same,AUC(0-24),"[2]; Day 13, Male, 50 mg/kg/day",164 ng·h/mL
same,Cmax,"[2]; Day 13, Male, 50 mg/kg/day",92.9 ng/mL
same,T1/2,"[2]; Day 13, Male, 50 mg/kg/day",107 min
same,Tmax,"[2]; Day 13, Male, 50 mg/kg/day",30 min
same,AUC(0-24),"[2]; Day 13, Male, 100 mg/kg/day",329 ng·h/mL
same,Cmax,"[2]; Day 13, Male, 100 mg/kg/day",136 ng/mL
same,T1/2,"[2]; Day 13, Male, 100 mg/kg/day",116 min
same,Tmax,"[2]; Day 13, Male, 100 mg/kg/day",30 min
same,HED of well tolerated dose,[3]; 50 mg/kg/day,16 mg/kg/day
same,"Bone marrow, femur: Depletion, mixed, mild; number with observation",[3]; 50 mg/kg/day F,0
same,"Bone marrow, femur: Depletion, mixed, minimal; number with observation",[3]; 50 mg/kg/day F,0
same,"Bone marrow, femur: Depletion, mixed, moderate; number with observation",[3]; 50 mg/kg/day F,0
same,"Bone marrow, rib: Depletion, mixed, mild; number with observation",[3]; 50 mg/kg/day F,0
same,"Bone marrow, rib: Depletion, mixed, minimal; number with observation",[3]; 50 mg/kg/day F,0
same,"Bone marrow, rib: Depletion, mixed, moderate; number with observation",[3]; 50 mg/kg/day F,0
same,"Bone marrow, rib: Depletion, mixed; number with observation",[3]; 50 mg/kg/day F,0
same,"Bone marrow, sternum: Depletion, mixed, mild; number with observation",[3]; 50 mg/kg/day F,0
same,"Bone marrow, sternum: Depletion, mixed, minimal; number with observation",[3]; 50 mg/kg/day F,0
same,"Bone marrow, sternum: Depletion, mixed, moderate; number with observation",[3]; 50 mg/kg/day F,0
same,"Bone marrow, sternum: Depletion, mixed; number with observation",[3]; 50 mg/kg/day F,0
same,"Liver: Hypertrophy, hepatocellular, panlobular, mild; number with observation",[3]; 50 mg/kg/day F,3
same,"Liver: Hypertrophy, hepatocellular, panlobular, minimal; number with observation",[3]; 50 mg/kg/day F,0
same,"Thymus: Depletion lymphoid, generalized, mild; number with observation",[3]; 50 mg/kg/day F,1
same,"Thymus: Depletion lymphoid, generalized, moderate; number with observation",[3]; 50 mg/kg/day F,0
same,"Thymus: Depletion lymphoid, generalized; number with observation",[3]; 50 mg/kg/day F,1
same,"Thymus: Depletion, lymphoid, cortex, mild; number with observation",[3]; 50 mg/kg/day F,0
same,"Thymus: Depletion, lymphoid, cortex, minimal; number with observation",[3]; 50 mg/kg/day F,2
same,"Thymus: Depletion, lymphoid, cortex, moderate; number with observation",[3]; 50 mg/kg/day F,0
same,mean cumulative body gain (Days 1-14),[3]; 50 mg/kg/day F,-0.08 kg
same,"Bone marrow, femur: Depletion, mixed; number with observation",[3]; 50 mg/kg/day F,0
same,"Liver: Hypertrophy, hepatocellular, panlobular; number with observation",[3]; 50 mg/kg/day F,3
same,"Thymus: Depletion, lymphoid, cortex; number with observation",[3]; 50 mg/kg/day F,2
same,"Bone marrow, femur: Depletion, mixed, mild; number with observation",[3]; 50 mg/kg/day M,0
same,"Bone marrow, femur: Depletion, mixed, minimal; number with observation",[3]; 50 mg/kg/day M,0
same,"Bone marrow, femur: Depletion, mixed, moderate; number with observation",[3]; 50 mg/kg/day M,0
same,"Bone marrow, rib: Depletion, mixed, mild; number with observation",[3]; 50 mg/kg/day M,0
same,"Bone marrow, rib: Depletion, mixed, minimal; number with observation",[3]; 50 mg/kg/day M,0
same,"Bone marrow, rib: Depletion, mixed, moderate; number with observation",[3]; 50 mg/kg/day M,0
same,"Bone marrow, rib: Depletion, mixed; number with observation",[3]; 50 mg/kg/day M,0
same,"Bone marrow, sternum: Depletion, mixed, mild; number with observation",[3]; 50 mg/kg/day M,0
same,"Bone marrow, sternum: Depletion, mixed, minimal; number with observation",[3]; 50 mg/kg/day M,0
same,"Bone marrow, sternum: Depletion, mixed, moderate; number with observation",[3]; 50 mg/kg/day M,0
same,"Bone marrow, sternum: Depletion, mixed; number with observation",[3]; 50 mg/kg/day M,0
same,"Liver: Hypertrophy, hepatocellular, panlobular, mild; number with observation",[3]; 50 mg/kg/day M,0
same,"Liver: Hypertrophy, hepatocellular, panlobular, minimal; number with observation",[3]; 50 mg/kg/day M,0
same,"Thymus: Depletion lymphoid, generalized, mild; number with observation",[3]; 50 mg/kg/day M,0
same,"Thymus: Depletion lymphoid, generalized, moderate; number with observation",[3]; 50 mg/kg/day M,0
same,"Thymus: Depletion lymphoid, generalized; number with observation",[3]; 50 mg/kg/day M,0
same,"Thymus: Depletion, lymphoid, cortex, mild; number with observation",[3]; 50 mg/kg/day M,0
same,"Thymus: Depletion, lymphoid, cortex, minimal; number with observation",[3]; 50 mg/kg/day M,2
same,"Thymus: Depletion, lymphoid, cortex, moderate; number with observation",[3]; 50 mg/kg/day M,0
same,mean cumulative body gain (Days 1-14),[3]; 50 mg/kg/day M,-0.22 kg
same,"Bone marrow, femur: Depletion, mixed; number with observation",[3]; 50 mg/kg/day M,0
same,"Liver: Hypertrophy, hepatocellular, panlobular; number with observation",[3]; 50 mg/kg/day M,0
same,"Thymus: Depletion, lymphoid, cortex; number with observation",[3]; 50 mg/kg/day M,2
same,"Bone marrow, femur: Depletion, mixed, mild; number with observation",[3]; 150 mg/kg/day F,0
same,"Bone marrow, femur: Depletion, mixed, minimal; number with observation",[3]; 150 mg/kg/day F,0
same,"Bone marrow, femur: Depletion, mixed, moderate; number with observation",[3]; 150 mg/kg/day F,0
same,"Bone marrow, rib: Depletion, mixed, mild; number with observation",[3]; 150 mg/kg/day F,0
same,"Bone marrow, rib: Depletion, mixed, minimal; number with observation",[3]; 150 mg/kg/day F,0
same,"Bone marrow, rib: Depletion, mixed, moderate; number with observation",[3]; 150 mg/kg/day F,0
